Reference: patent publication US8822447B2, “Indazole compounds useful as ketohexokinase inhibitors” (Janssen Pharmaceutica NV, priority 2010, dated 2014)

biological target: KHK (Homo sapiens (Human), UniProt P50053); experiment: In Vitro KHK Enzyme Assay (HTMS); format: biochemical; settings: 200 μM fructose, 100 μM ATP, 2 nM KHK, 60 min at 25° C.; Fructose-1-P detected by high throughput mass spectrometry;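 further: primary screen measuring inhibition of KHK-catalysed conversion of D-fructose into fructose 1-phosphate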
Sequence (P50053 whole entry): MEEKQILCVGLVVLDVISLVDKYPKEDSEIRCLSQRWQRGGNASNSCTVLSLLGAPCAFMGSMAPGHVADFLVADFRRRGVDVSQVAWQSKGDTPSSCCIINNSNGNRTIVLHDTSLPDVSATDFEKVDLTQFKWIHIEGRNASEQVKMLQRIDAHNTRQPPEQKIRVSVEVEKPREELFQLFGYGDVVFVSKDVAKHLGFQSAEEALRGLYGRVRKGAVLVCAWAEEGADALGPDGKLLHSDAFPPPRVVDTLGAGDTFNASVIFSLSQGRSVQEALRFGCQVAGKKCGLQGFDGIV

| SMILES | IC50 [nM] |
| --- | --- |
| CSc1nn(-c2ccc([N+](=O)[O-])cc2)c2cc(CN3CCNCC3)ccc12 [Compound 130, 3-Methylsulfanyl-1-(4-nitro-phenyl)-6-piperazin-1-ylmethyl-1H-indazole] | 44900 |
| CSc1nn(-c2ccccc2)c2cc(NC(=O)CN3CCNCC3)ccc12 [Compound 131, N-(3-Methylsulfanyl-1-phenyl-1H-indazol-6-yl)-2-piperazin-1-yl-acetamide] | 680 |
| CSc1nn(-c2ccccc2)c2cc(NC(=O)CCN3CCNCC3)ccc12 [Compound 132, N-(3-Methylsulfanyl-1-phenyl-1H-indazol-6-yl)-3-piperazin-1-yl-propionamide] | 380 |
| CSc1nn(-c2ccc([N+](=O)[O-])cc2)c2cc(C(=O)N3CCNCC3)ccc12 [Compound 133, [3-Methylsulfanyl-1-(4-nitro-phenyl)-1H-indazol-6-yl]-piperazin-1-yl-methanone] | > 51000 |
| CSc1nn(-c2ccc(F)cc2)c2cc(N3CCN(C4CCNCC4)CC3)ccc12 [Compound 135, 1-(4-Fluoro-phenyl)-3-methylsulfanyl-6-(4-piperidin-4-yl-piperazin-1-yl)-1H-indazole] | 1650 |
| CSc1nn(-c2ccccc2)c2cc(C(O)C3CCNCC3)ccc12 (stereo not drawn) [Compound 136, (3-Methylsulfanyl-1-phenyl-1H-indazol-6-yl)-piperidin-4-yl-methanol] | > 2000 |
| CSc1nn(-c2ccccc2)c2cc(C(O)c3ccncc3)ccc12 (stereo not drawn) [Compound 137, (3-Methylsulfanyl-1-phenyl-1H-indazol-6-yl)-pyridin-4-yl-methanol] | > 2000 |
| CSc1nn(-c2ccc(F)cc2)c2cc(C3=CCNCC3)ccc12 [Compound 139, 1-(4-Fluoro-phenyl)-3-methylsulfanyl-6-(1,2,3,6-tetrahydro-pyridin-4-yl)-1H-indazole] | 230 |
| COc1ccc(-n2nc(SC)c3ccc(C4=CCNCC4)cc32)cc1 [Compound 140, 1-(4-Methoxy-phenyl)-3-methylsulfanyl-6-(1,2,3,6-tetrahydro-pyridin-4-yl)-1H-indazole] | 90 |
| CSc1nn(-c2ccccc2)c2cc(C=CC3CCNCC3)ccc12 [Compound 141, 3-Methylsulfanyl-1-phenyl-6-(2-piperidin-4-yl-vinyl)-1H-indazole] | 230 |
| CSc1nn(-c2ccccc2)c2cc(C(=O)C3CCNCC3)ccc12 [Compound 142, (3-Methylsulfanyl-1-phenyl-1H-indazol-6-yl)-piperidin-4-yl-methanone] | 670 |
| CSc1nn(-c2ccc([N+](=O)[O-])cc2)c2cc(C3=CCN(C(=O)CN)CC3)ccc12 [Compound 144, 2-Amino-1-{4-[3-methylsulfanyl-1-(4-nitro-phenyl)-1H-indazol-6-yl]-3,6-dihydro-2H-pyridin-1-yl}-ethanone] | > 10000 |
| CSc1nn(-c2cccc(C)c2)c2cc(C3=CCNCC3)ccc12 [Compound 147, 3-Methylsulfanyl-6-(1,2,3,6-tetrahydropyridin-4-yl)-1-(3-methylphenyl)-1H-indazole] | 30 |
| CSc1nn(-c2ccccc2)c2cc(C3=CCN(C(=O)CCN)CC3)ccc12 [Compound 149, 3-Amino-1-[4-(3-methylsulfanyl-1-phenyl-1H-indazol-6-yl)-3,6-dihydro-2H-pyridin-1-yl]-propan-1-one] | 480 |
| CSc1nn(-c2ccccc2)c2cc(C=Cn3cncn3)ccc12 [Compound 152, 3-Methylsulfanyl-1-phenyl-6-(2-[1,2,4]triazol-1-yl-vinyl)-1H-indazole] | > 10000 |
| CSc1nn(-c2ccccc2)c2cc(C=CC3CCNCC3)ccc12 [Compound 153, 3-Methylsulfanyl-1-phenyl-6-(2-piperidin-4-yl-vinyl)-1H-indazole] | 400 |
| CSc1nn(-c2ccccc2)c2cc(C=Cc3ccncc3)ccc12 [Compound 154, 3-Methylsulfanyl-1-phenyl-6-(2-pyridin-4-yl-vinyl)-1H-indazole] | > 10000 |
| CSc1nn(-c2ccccc2)c2cc(C=Cc3ccccn3)ccc12 [Compound 155, 3-Methylsulfanyl-1-phenyl-6-(2-pyridin-2-yl-vinyl)-1H-indazole] | > 10000 |
| CSc1nn(-c2ccccc2)c2cc(NC(=O)C3(N)CCNCC3)ccc12 [Compound 157, 4-Amino-piperidine-4-carboxylic acid (3-methylsulfanyl-1-phenyl-1H-indazol-6-yl)-amide] | 300 |
| CSc1nn(-c2ccccc2)c2cc(NC(=O)C3(C)CCNCC3)ccc12 [Compound 158, 4-Methyl-piperidine-4-carboxylic acid (3-methylsulfanyl-1-phenyl-1H-indazol-6-yl)-amide] | 700 |

| SMILES | IC50 [nM] |
| --- | --- |
| CSc1nn(-c2ccccc2)c2cc(C(=O)CC3CCNCC3)ccc12 [Compound 160, 1-(3-Methylsulfanyl-1-phenyl-1H-indazol-6-yl)-2-piperidin-4-yl-ethanone] | 1000 |
| CSc1nn(-c2ccccc2)c2cc(C(=O)CC3CCCNC3)ccc12 (stereo not drawn) [Compound 161, 1-(3-Methylsulfanyl-1-phenyl-1H-indazol-6-yl)-2-piperidin-3-yl-ethanone] | 6620 |
| CSc1nn(-c2ccccc2)c2cc(C(=O)CC3CCCN3)ccc12 (stereo not drawn) [Compound 163, 1-(3-Methylsulfanyl-1-phenyl-1H-indazol-6-yl)-2-pyrrolidin-2-yl-ethanone] | 8280 |
| CSc1nn(-c2ccccc2)c2cc(-c3ccncc3)ccc12 [Compound 164, 3-Methylsulfanyl-1-phenyl-6-pyridin-4-yl-1H-indazole] | > 10000 |
| CSc1nn(-c2ccccc2)c2cc(NCCN3CCNCC3)ccc12 [Compound 165, (3-Methylsulfanyl-1-phenyl-1H-indazol-6-yl)-(2-piperazin-1-yl-ethyl)-amine] | 890 |
| CSc1nn(-c2ccccc2)c2cc(NCCC3CCNCC3)ccc12 [Compound 166, (3-Methylsulfanyl-1-phenyl-1H-indazol-6-yl)-(2-piperidin-4-yl-ethyl)-amine] | 600 |
| CSc1nn(-c2ccccc2)c2cc(NC(=O)C3(F)CCNCC3)ccc12 [Compound 167, 4-Fluoro-piperidine-4-carboxylic acid (3-methylsulfanyl-1-phenyl-1H-indazol-6-yl)-amide] | 660 |
| CSc1nn(-c2ccccc2)c2cc(C(=O)C(=O)N3CCNCC3)ccc12 [Compound 168, 1-(3-Methylsulfanyl-1-phenyl-1H-indazol-6-yl)-2-piperazin-1-yl-ethane-1,2-dione] | 4120 |
| CSc1nn(-c2ccccc2)c2cc(C(=O)c3ccc4ncn(C)c4c3)ccc12 [Compound 171, (3-Methyl-3H-benzoimidazol-5-yl)-(3-methylsulfanyl-1-phenyl-1H-indazol-6-yl)-methanone] | > 10000 |
| CSc1nn(-c2ccccc2)c2cc(NC(=O)C3(c4ccccc4)CCNCC3)ccc12 [Compound 172, 4-Phenyl-piperidine-4-carboxylic acid (3-methylsulfanyl-1-phenyl-1H-indazol-6-yl)-amide] | 2150 |
| COc1ccc(-n2nc(SC)c3ccc(C(=O)c4ccc5ncn(C)c5c4)cc32)cc1 [Compound 173, [1-(4-Methoxy-phenyl)-3-methylsulfanyl-1H-indazol-6-yl]-(3-methyl-3H-benzoimidazol-5-yl)-methanone] | > 10000 |
| CSc1nn(-c2ccccc2)c2cc(C(=O)c3ccc4nonc4c3)ccc12 [Compound 174, Benzo[1,2,5]oxadiazol-5-yl-(3-methylsulfanyl-1-phenyl-1H-indazol-6-yl)-methanone] | > 10000 |
| CSc1nn(-c2ccccc2)c2cc(C=CC3CCCN3)ccc12 (stereo not drawn) [Compound 175, 3-Methylsulfanyl-1-phenyl-6-(2-pyrrolidin-2-yl-vinyl)-1H-indazole] | 610 |
| CSc1nn(-c2ccccc2)c2cc(C=CC3CCCNC3)ccc12 (stereo not drawn) [Compound 176, 3-Methylsulfanyl-1-phenyl-6-(2-piperidin-3-yl-vinyl)-1H-indazole] | 790 |
| CSc1nn(-c2ccccc2)c2cc(C=Cc3ccc(C)nc3)ccc12 [Compound 178, 6-[2-(6-Methyl-pyridin-3-yl)-vinyl]-3-methylsulfanyl-1-phenyl-1H-indazole] | > 10000 |
| CSc1nn(-c2cccc(F)c2)c2cc(C3=CCNCC3)ccc12 [Compound 179, 1-(3-Fluoro-phenyl)-3-methylsulfanyl-6-(1,2,3,6-tetrahydro-pyridin-4-yl)-1H-indazole] | 40 |
| CSc1nn(-c2ccccc2C)c2cc(C3=CCNCC3)ccc12 [Compound 180, 3-Methylsulfanyl-6-(1,2,3,6-tetrahydro-pyridin-4-yl)-1-o-tolyl-1H-indazole] | > 10000 |
| CSc1nn(-c2ccc(C)cc2)c2cc(C3=CCNCC3)ccc12 [Compound 184, 3-Methylsulfanyl-6-(1,2,3,6-tetrahydro-pyridin-4-yl)-1-p-tolyl-1H-indazole] | 40 |
| CSc1nn(-c2ccccc2)c2cc(CCC3CCNCC3)ccc12 [Compound 185, 3-Methylsulfanyl-1-phenyl-6-(2-piperidin-4-yl-ethyl)-1H-indazole] | 920 |
